Assay: in vivo
Set-up: species or system SD rats
Details: rat, in vivo, iv, 1 mg/kg
Experimental: 105 was dissolved in 4% NaHCO3 in saline for IV administration. The detailed procedure of dosing solution preparation was presented in Appendix I.
Thirteen (13) animals were placed on the study. The animals in IV arm were free access to food and water. One extra animal was used for blank liver and plasma generation (5 mL per animal). The resulting blank liver and plasma was then applied to the development of bioanalytical method and sample bioanalysis for the entire study.
The IV injection was conducted via foot dorsal vein. Animals were free access to food and water before dose.
The animal is restrained manually. Approximately 150 μL of blood/time point is collected into sodium heparin tube via cardiac puncture for terminal bleeding (anesthetized under carbon dioxide). Blood sample will be put on ice and centrifuged to obtain plasma sample (2000 g, 5 min under 4° C.) within 10 minutes.
The animal will be euthanized with carbon dioxide inhalation. Open abdominal cavity with scissor to expose internal organs. Hold the carcass in an upright position and allow the organs to fall forward. Cut the connective tissues and remove the organs. Then the organs are rinsed with cold saline, dried on filtrate paper, placed into a screw-top tube and weighed, snap frozen by placing into dry-ice immediately.
Plasma and liver samples were stored at approximately −80° C. until analysis. The backup samples will be discarded after three weeks after in-life completion unless requested. The unused dosing solutions will be discarded within three weeks after completion of the study
Software: The PK parameters were determined by non-compartmental model of non-compartmental analysis tool, Pharsight Phoenix WinNonlin® 6.2 software.
Concentration data within 80%-120% of LLOQ was considered within normal instrumental variation and presented in the results. Terminal t1/2 calculation: Time points were automatic selected by “best fit” model for terminal half life estimation as the first option. Manual selection was applied when “best fit” could not well define the terminal phase.

Question: With `O=C(O)C1C2CCC(O2)C1C(=O)O` (centres unmarked) [Endothal, 7-oxabicyclo[2.2.1]heptane-2,3-dicarboxylic acid] as the molecule, how does the “AUC(0-last) in liver” value read?
Answer: Its value is 3152 ng·h/g.

Question: And the “AUC(0-∞) in liver” value?
Answer: Its value is 4896 ng·h/g.
